# Test results from patent US20230052189A1, “TREATMENT OF PRIMARY BILIARY CHOLANGITIS WITH ELAFIBRANOR” (Genfit, priority 2020, published 2023).
# Legend:
# patients with PBC = conditions: Nevens et al. 2016; cited from earlier work
# subjects with PBC [1] = test: Phase 2 study: tolerability and safety (TEAEs, pruritus worsening); format: in vivo, human; conditions: for percentage of subjects reporting TEAEs (Treatment-Emergent Adverse Events): placebo 80.0%
# Description: (§1) The study was a Phase 2, double-blind, randomized, parallel group, placebo-controlled study, designed to evaluate the efficacy and safety of elafibranor at doses of 80 mg or 120 mg daily vs placebo in an adult PBC population. This study projected to randomize approximately 45 subjects to 3 treatment groups in a 1:1:1 ratio (elafibranor 80 mg, elafibranor 120 mg, or placebo).
# (§2) Subject participation was planned to be a maximum of 20 weeks. The study was comprised of 3 periods: a Screening Period, a Treatment Period, and a Follow-up Period. The Screening Period (Week −4 to Week −1) preceded the 12-week double-blind Treatment Period.
# The tolerability and safety of once-per-day oral administration of elafibranor in 80-mg and 120-mg doses in subjects with PBC was assessed as follows: • Physical examination • Vital signs • Medical history • ECG • Hematological parameters • Liver markers • Other biochemical safety parameters
# subjects with PBC [2] = test: Phase 2 study: pruritus (itching) domain of PBC-40 quality of life questionnaire; format: in vivo, human; conditions: for median absolute change from baseline to Endpoint in the pruritus/itching domain of PBC-40: placebo 0.0; for median relative change from baseline to Endpoint in the pruritus/itching domain of PBC-40: placebo 0%; for mean absolute change from baseline to Endpoint in the pruritus (itching) domain of PBC-40: placebo 2.1
# Description: as §1, §2
# subjects with PBC [3] = test: Phase 2 study: change from baseline in pruritus visual analogue scale (VAS); format: in vivo, human; conditions: for median relative change from baseline to Endpoint in the pruritus VAS: placebo −7.1%
# Description: as §1, §2
# Considering that pruritus is a preeminent adverse event in subjects with PBC, assessment of pruritus was also considered. More specifically, the change from baseline in pruritus (through 5D-itch scale (measuring the degree, duration, direction [improvement or worsening], disability [effect on daily activities], and distribution of itching) and visual analogue scale for pruritus (VAS).
# The 5D-itch scale is a reliable, multidimensional measure of itching that has been validated in patients with chronic pruritus to detect changes over time (Elman S, et al., The 5-D itch scale: a new measure of pruritus. Br J Dermatol. 2010; 162(3):587-593.). The VAS is a reliable and validated method of pruritus assessment (Reich A, et al., Visual analogue scale: evaluation of the instrument for the assessment of pruritus. Acta Derm Venereol.2012; 92(5):497-501).
# Pruritus scoring values and absolute changes from baseline are provided for each domain of the 5D-itch scale (duration, degree, direction, disability, and distribution) and for the VAS by subject and by visit; baseline and Endpoint values are flagged in this listing; total scores at each visit are also summarized in this listing.
# subjects with PBC [4] = test: Phase 2 double-blind placebo-controlled study: change from baseline in serum ALP; format: in vivo, human; conditions: for treatment effect estimate vs placebo, relative change in serum ALP (supportive analysis): ANCOVA with baseline ALP as covariate; for treatment effect estimate vs placebo, relative change in serum ALP (primary analysis): non-parametric randomization-based ANCOVA with baseline ALP as covariate, p<0.001; for mean relative change (%) from baseline to Endpoint in serum ALP: 12-week treatment, placebo 3.2%
# Description: as §1, §2
# A decrease in ALP levels is recognized as a particularly relevant surrogate marker for the treatment of PBC. Consequently the primary endpoint of the study is to evaluate the efficacy of elafibranor 80 mg or 120 mg with respect to relative change from baseline in serum ALP levels compared to placebo.
# [5] = 80 mg and 120 mg treatment groups
structure (smiles),measurement,setting,value
"CC[C@H]1[C@@H](O)[C@@H]2[C@H](CC[C@]3(C)[C@@H]([C@H](C)CCC(=O)O)CC[C@@H]23)[C@@]2(C)CC[C@@H](O)C[C@@H]12 [OCA, obeticholic acid]",pruritus adverse event,patients with PBC,severe pruritus has been reported
"CSc1ccc(C(=O)C=Cc2cc(C)c(OC(C)(C)C(=O)O)c(C)c2)cc1 [elafibranor, 2-(2,6-dimethyl-4-{3-[4-(methylsulfanyl)phenyl]-3-oxopropen-1-yl}phenoxy)-2-methylpropanoic acid]",safety and tolerability in patients,subjects with PBC [1]; 80 mg and 120 mg,safe and well-tolerated
same,worsening of pruritus,subjects with PBC [1]; 80 mg and 120 mg,no worsening of pruritus
same,percentage of subjects reporting TEAEs (Treatment-Emergent Adverse Events),subjects with PBC [1]; 80 mg,80.0%
same,percentage of subjects reporting TEAEs (Treatment-Emergent Adverse Events),subjects with PBC [1]; 120 mg,86.7%
same,median absolute change from baseline to Endpoint in the pruritus/itching domain of PBC-40,subjects with PBC [2]; 80 mg,−1.0
same,median relative change from baseline to Endpoint in the pruritus/itching domain of PBC-40,subjects with PBC [2]; 80 mg,−25.0%
same,mean absolute change from baseline to Endpoint in the pruritus (itching) domain of PBC-40,subjects with PBC [2]; 80 mg,−0.9
same,median absolute change from baseline to Endpoint in the pruritus/itching domain of PBC-40,subjects with PBC [2]; 120 mg,−1.0
same,median relative change from baseline to Endpoint in the pruritus/itching domain of PBC-40,subjects with PBC [2]; 120 mg,−20.8%
same,mean absolute change from baseline to Endpoint in the pruritus (itching) domain of PBC-40,subjects with PBC [2]; 120 mg,−4.1
same,median pruritus VAS from baseline through Week 12 (trend),subjects with PBC [3]; [5],declining median VAS as early as Week 2
same,median relative change from baseline to Endpoint in the pruritus VAS,subjects with PBC [3]; 80 mg,−23.7%
same,median relative change from baseline to Endpoint in the pruritus VAS,subjects with PBC [3]; 120 mg,−49.5%
same,change from baseline in serum ALP vs placebo at Endpoint (significance),subjects with PBC [4]; [5],statistically significantly different from placebo
same,mean ALP values from baseline through Week 12 (trend),"subjects with PBC [4]; 80 mg and 120 mg treatment groups, 12 week study",declining mean ALP values
same,"treatment effect estimate vs placebo, relative change in serum ALP (supportive analysis)","subjects with PBC [4]; 80 mg, 95% CI [−63.3, −39.5]",−51.4%
same,"treatment effect estimate vs placebo, relative change in serum ALP (primary analysis)","subjects with PBC [4]; 80 mg, 95% CI [−62.5, −41.5]",−52.0%
same,"treatment effect estimate vs placebo, relative change in serum ALP (supportive analysis)","subjects with PBC [4]; 120 mg, 95% CI [−55.8, −31.9]",−43.9%
same,"treatment effect estimate vs placebo, relative change in serum ALP (primary analysis)","subjects with PBC [4]; 120 mg, 95% CI [−55.7, −32.1]",−43.9%
same,mean relative change (%) from baseline to Endpoint in serum ALP,subjects with PBC [4]; elafibranor 80 mg daily oral,−48.3%
same,mean relative change (%) from baseline to Endpoint in serum ALP,subjects with PBC [4]; elafibranor 120 mg daily oral,−40.6%
